We go through 1 compound from ChEMBL document CHEMBL1139099, “Novel trifluoroacetophenone derivatives as malonyl-CoA decarboxylase inhibitors” (Bioorg Med Chem Lett, 2007).

For orientation: IC50 means the concentration at which inhibition is half-maximal. Lower therefore signals inhibition by little substance.

For this assay, the target named is T1, Malonyl-CoA decarboxylase, mitochondrial (Homo sapiens, UniProt O95822).
T1 sequence (O95822 whole entry): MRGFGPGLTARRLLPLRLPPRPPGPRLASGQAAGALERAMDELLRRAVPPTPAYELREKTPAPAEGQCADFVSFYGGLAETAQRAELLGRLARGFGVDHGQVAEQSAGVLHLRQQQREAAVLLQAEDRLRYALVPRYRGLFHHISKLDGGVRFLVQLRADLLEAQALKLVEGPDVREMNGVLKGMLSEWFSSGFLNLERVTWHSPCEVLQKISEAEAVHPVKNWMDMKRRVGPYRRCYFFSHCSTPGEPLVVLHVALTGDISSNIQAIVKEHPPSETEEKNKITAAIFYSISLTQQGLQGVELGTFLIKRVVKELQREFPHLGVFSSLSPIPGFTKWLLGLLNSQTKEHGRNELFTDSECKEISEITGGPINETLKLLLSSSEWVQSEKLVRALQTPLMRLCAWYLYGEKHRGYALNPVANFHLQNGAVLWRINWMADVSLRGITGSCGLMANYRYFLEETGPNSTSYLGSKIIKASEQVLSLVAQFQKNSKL
The experiment in a line: Inhibition of MBP fused human MCD.

As to `O=C(NCC1CCCCC1)c1ccc(C(=O)C(F)(F)F)cc1`, 2300 nM corresponded to half-maximal inhibition (IC50).
